Data reported in ChEMBL document CHEMBL4725395, “Lipoic acid modified antimicrobial peptide with enhanced antimicrobial properties” (Bioorg Med Chem, 2020).
≈ marks a conversion by molar mass, not a printed value. Calls of active or inactive are those of the source. The rule behind the calls is not given here. Residues, ends and D or L forms follow the SMILES beside them. ξ: configuration not given here. *: point of attachment. Lipoyl(6ξ) = O=C(CCCCC1CCSS1)*

What was measured:
[1] = Hemolytic activity against Erythrocyte (unknown origin) at 16 ug/ml measured after 4 hrs by microplate reader analysis relative to control; type: ADME, cell-based; details: human, erythrocytes, at 16 µg/mL, read-out: Activity
[2] = system: Staphylococcus aureus; experiment: Antibiofilm activity against methicillin resistant Staphylococcus aureus ATCC 43300 assessed as inhibition of biofilm formation at 64 ug/ml after 48 hrs by crystal violet staining based assay relative to control; type: functional; design: scale not given: the % may be the effect or the level left; details: dose 64 µg/ml
[3] = system: Staphylococcus aureus; experiment: Antibiofilm activity against 48 hrs pre-formed biofilm of Staphylococcus aureus ATCC 29213 assessed as reduction in biofilm viability at 64 ug/ml after 5 hrs relative to control; type: functional; details: dose 64 µg/ml
[4] = system: Cell membrane; experiment: Induction of cell membrane damage in methicillin-resistant Staphylococcus aureus ATCC 43300 assessed as leakage of cellular components at 16 ug/ml after 30 mins by transmission electron microscopy; type: subcellular; details: dose 16.0 µg/ml
[5] = system: Pseudomonas aeruginosa; experiment: Antimicrobial activity against Pseudomonas aeruginosa ATCC 27853 assessed as inhibition of visible growth incubated for 24 hrs; type: functional
[6] = Cytotoxicity against mouse L929 cells assessed as cell viability at 64 ug/ml after 24 hrs by MTT assay relative to control; type: cell-based; details: at 64 µg/mL, read-out: Activity
[7] = system: Staphylococcus epidermidis; experiment: Antimicrobial activity against Staphylococcus epidermidis ATCC 14990 by measuring turbidity after 16 hrs; type: functional
[8] = system: Pseudomonas aeruginosa; experiment: Antimicrobial activity against Pseudomonas aeruginosa ATCC 27853 by measuring turbidity after 16 hrs; type: functional
[9] = system: Staphylococcus aureus; experiment: Antimicrobial activity against Staphylococcus aureus ATCC 29213 assessed as inhibition of visible growth incubated for 24 hrs; type: functional
[10] = system: Staphylococcus aureus; experiment: Antimicrobial activity against methicillin-resistant Staphylococcus aureus ATCC 43300 by measuring turbidity after 16 hrs; type: functional
[11] = system: Staphylococcus aureus; experiment: Antibiofilm activity against Staphylococcus aureus ATCC 29213 assessed as dead bacteria at 64 ug/ml incubated for 5 hrs by live/dead staining based confocal laser scanning microscopy; type: functional, organism-based; details: dose 64.0 µg/ml
[12] = Hemolytic activity against Erythrocyte (unknown origin) at 4 ug/ml measured after 4 hrs by microplate reader analysis relative to control; type: ADME, cell-based; details: human, erythrocytes, at 4 µg/mL, read-out: Activity
[13] = system: Escherichia coli; experiment: Antimicrobial activity against Escherichia coli ATCC 25922 by measuring turbidity after 16 hrs; type: functional
[14] = system: Cell membrane; experiment: Induction of cytoplasmic membrane depolarization in Kcl - treated Escherichia coli DC2 assessed as increase in fluorescence intensity for a period of 600 sec by diSC3-5 dye based fluorescence microplate reader assay
[15] = system: Escherichia coli; experiment: Antimicrobial activity against Escherichia coli ATCC 25922 assessed as inhibition of visible growth incubated for 24 hrs; type: functional
[16] = Cytotoxicity against mouse L929 cells assessed as cell viability at 32 ug/ml after 24 hrs by MTT assay relative to control; type: cell-based; details: at 32 µg/mL, read-out: Activity
[17] = system: Staphylococcus aureus; experiment: Antibiofilm activity against Staphylococcus aureus ATCC 29213 assessed as inhibition of biofilm formation at 64 ug/ml after 48 hrs by crystal violet staining based assay relative to control; type: functional; design: scale not given: the % may be the effect or the level left; details: dose 64 µg/ml
[18] = Cytotoxicity against mouse L929 cells assessed as cell viability at 8 or 16 ug/ml after 24 hrs by MTT assay relative to control; type: cell-based; details: dose 8-16 µg/ml, read-out: Activity
[19] = system: Cell membrane; experiment: Induction of outer membrane permeabilization in Escherichia coli ATCC 25922 assessed as increase in fluorescence intensity at 4 ug/ml after 100 sec by NPN-dye based assay; type: subcellular; details: dose 4.0 µg/ml
[20] = system: Staphylococcus aureus; experiment: Bactericidal activity against planktonic phase of methicillin-resistant Staphylococcus aureus ATCC 43300 assessed as log reduction in bacterial colony forming units at 8 ug/ml incubated for 15 mins followed by plating on agar plate and measured after overnight incubation by time-kill kinetic assay relative to control; type: functional; design: scale not given: the % may be the effect or the level left; details: dose 8 µg/ml, 0.25 h
[21] = system: Staphylococcus aureus; experiment: Antimicrobial activity against Staphylococcus aureus ATCC 29213 by measuring turbidity at 540 nm OD after 16 hrs; type: functional
[22] = system: Cell membrane; experiment: Induction of cell membrane damage in Escherichia coli ATCC 25922 assessed as leakage of cellular components at 16 ug/ml after 30 mins by transmission electron microscopy; type: subcellular; details: dose 16.0 µg/ml
[23] = Cytotoxicity against mouse L929 cells assessed as cell viability at 128 ug/ml after 24 hrs by MTT assay relative to control; type: cell-based; details: at 128 µg/mL, read-out: Activity
[24] = system: Staphylococcus aureus; experiment: Bactericidal activity against planktonic phase of Staphylococcus aureus ATCC 29213 assessed as log reduction in bacterial colony forming units at 2 ug/ml incubated for 15 mins followed by plating on agar plate and measured after overnight incubation by time-kill kinetic assay relative to control; type: functional; design: scale not given: the % may be the effect or the level left; details: dose 2 µg/ml, 0.25 h
[25] = system: Staphylococcus aureus; experiment: Antimicrobial activity against methicillin-resistant Staphylococcus aureus ATCC 43300 assessed as inhibition of visible growth incubated for 24 hrs; type: functional
[26] = system: Staphylococcus epidermidis; experiment: Antimicrobial activity against Staphylococcus epidermidis ATCC 14990 assessed as inhibition of visible growth incubated for 24 hrs; type: functional
[27] = system: Staphylococcus aureus; experiment: Antibiofilm activity against methicillin-resistant Staphylococcus aureus ATCC 43300 assessed as dead bacteria at 64 ug/ml incubated for 5 hrs by live/dead staining based confocal laser scanning microscopy; type: functional, organism-based; details: dose 64.0 µg/ml
[28] = system: Staphylococcus aureus; experiment: Antibiofilm activity against 48 hrs preformed biofilm of methicillin resistant Staphylococcus aureus ATCC 43300 assessed as reduction in biofilm viability at 128 ug/ml after 5 hrs relative to control; type: functional; details: dose 128 µg/ml

In the case of `CC[C@H](C)[C@H](NC(=O)[C@H](CCCNC(=N)N)NC(=O)CCCCC1CCSS1)C(=O)N[C@@H](Cc1c[nH]c2ccccc12)C(=O)N[C@H](C(=O)N[C@H](C(=O)N[C@@H](Cc1c[nH]c2ccccc12)C(=O)N[C@@H](CCCNC(=N)N)C(=O)N[C@@H](CCCNC(=N)N)C(N)=O)[C@@H](C)CC)C(C)C` (some centres not stated) ({Lipoyl(6ξ)}-RIWVIWRR-NH2), the hemolysis at 4 h, 16 ug/ml [1] is reported as 4.58%, the Activity [2] is reported as 25.6% and the Activity [3] is reported as 60%. The Activity [4] was “Active”, the MBC [5] was 8 µg/mL (≈ 5.83 µM) and the viability at 24 h, 64 ug/ml [6] was 84.9%. The MIC [7] was 8 µg/mL (≈ 5.83 µM), the MIC [8] was 8 µg/mL (≈ 5.83 µM) and the MBC [9] was 2 µg/mL (≈ 1.46 µM). For the same compound, the MIC [10] was 4 µg/mL (≈ 2.92 µM), the Activity [11] was “Active” and the hemolysis at 4 h, 4 ug/ml [12] was 0.97%. The MIC [13] was 8 µg/mL (≈ 5.83 µM), the Activity [14] was “Dose-dependent effect” and the MBC [15] was 8 µg/mL (≈ 5.83 µM). For the same compound, the viability at 24 h, 32 ug/ml [16] was 89.4%, the Activity [17] was 12% and the viability at 24 h [18] was 100%. For the same compound, the Activity [19] was “Active”, the Activity [20] was 99% and the MIC [21] was 1 µg/mL (≈ 0.729 µM). The Activity [22] was “Active”, the viability at 24 h, 128 ug/ml [23] was 80.1% and the Activity [24] was 99%. The MBC [25] was 8 µg/mL (≈ 5.83 µM), the MBC [26] was 8 µg/mL (≈ 5.83 µM) and the Activity [27] was “Active”. For the same compound, the Activity [28] was 36.4%.

With H-RIWVIWRR-NH2 the hemolysis at 4 h, 16 ug/ml [1] was 3.47%, the Activity [3] was 45% and the Activity [4] was “Active”. For the same compound, the MBC [5] was 4 µg/mL, the MIC [7] was 4 µg/mL and the MIC [8] was 4 µg/mL. For the same compound, the MBC [9] was 4 µg/mL, the MIC [10] was 8 µg/mL and the hemolysis at 4 h, 4 ug/ml [12] was 1.21%. The MIC [13] was 4 µg/mL, the Activity [14] was “Dose-dependent effect” and the MBC [15] was 4 µg/mL. The viability at 24 h [18] was 100%, the MIC [21] was 2 µg/mL and the Activity [22] was “Active”. The viability at 24 h, 128 ug/ml [23] was 85.7%, the MBC [25] was 16 µg/mL and the MBC [26] was 4 µg/mL. It also gave an Activity [28] of 40.2%.
